The experiment has as its target T1, DYRK1B (dual-specificity tyrosine phosphorylation-regulated kinase 1B) (Homo sapiens, UniProt Q9Y463).
T1 construct: Human DYRK1B recombinant protein (#PV4649)
The experiment can be described thus: LanthaScreen Eu Kinase Binding Assay (TR-FRET displacement of kinase tracer […]), recombinant protein. On the technique in general: TR-FRET usually uses a lanthanide donor and a delayed reading to cut background.

T1 sequence (Q9Y463 whole entry): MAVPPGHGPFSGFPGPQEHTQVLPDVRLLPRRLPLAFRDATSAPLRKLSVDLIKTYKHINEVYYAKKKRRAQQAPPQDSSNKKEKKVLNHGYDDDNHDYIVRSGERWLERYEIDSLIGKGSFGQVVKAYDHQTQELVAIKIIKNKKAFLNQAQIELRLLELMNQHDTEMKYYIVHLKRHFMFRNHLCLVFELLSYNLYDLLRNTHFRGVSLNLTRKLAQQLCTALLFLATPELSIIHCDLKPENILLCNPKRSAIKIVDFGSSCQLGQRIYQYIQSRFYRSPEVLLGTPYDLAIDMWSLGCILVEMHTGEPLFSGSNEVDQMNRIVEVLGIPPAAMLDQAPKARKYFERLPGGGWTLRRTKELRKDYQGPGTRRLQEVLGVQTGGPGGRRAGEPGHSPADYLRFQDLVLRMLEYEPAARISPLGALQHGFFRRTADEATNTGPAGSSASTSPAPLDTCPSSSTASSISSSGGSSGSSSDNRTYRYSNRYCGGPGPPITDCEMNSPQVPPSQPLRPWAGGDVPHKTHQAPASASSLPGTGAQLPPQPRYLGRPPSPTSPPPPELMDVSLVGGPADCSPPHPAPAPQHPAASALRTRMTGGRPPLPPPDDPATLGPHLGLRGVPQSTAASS

`COc1ccc(-c2n[nH]c3ncc(-c4ccc(NC(C)=O)cc4)cc23)cc1` [KS-40070, N-(4-(3-(4-methoxyphenyl)-1H-pyrazolo [3,4-b]pyridin-5-yl)phenyl)acetamide]: the half-maximal inhibitory concentration (IC50) (usually the concentration at which inhibition is half-maximal) amounted to 18 nM.
